The values that follow come from ChEMBL document CHEMBL1909046, “DrugMatrix in vitro pharmacology data”.

A word on the IC50: it is the concentration at which inhibition is half-maximal. For orientation: Ki means a dissociation constant, usually derived from enzyme kinetics or from competition with a known ligand.

Data set [1] deals with T1, Polyunsaturated fatty acid lipoxygenase ALOX15 (Oryctolagus cuniculus, UniProt P12530).
T1 sequence (P12530 whole entry): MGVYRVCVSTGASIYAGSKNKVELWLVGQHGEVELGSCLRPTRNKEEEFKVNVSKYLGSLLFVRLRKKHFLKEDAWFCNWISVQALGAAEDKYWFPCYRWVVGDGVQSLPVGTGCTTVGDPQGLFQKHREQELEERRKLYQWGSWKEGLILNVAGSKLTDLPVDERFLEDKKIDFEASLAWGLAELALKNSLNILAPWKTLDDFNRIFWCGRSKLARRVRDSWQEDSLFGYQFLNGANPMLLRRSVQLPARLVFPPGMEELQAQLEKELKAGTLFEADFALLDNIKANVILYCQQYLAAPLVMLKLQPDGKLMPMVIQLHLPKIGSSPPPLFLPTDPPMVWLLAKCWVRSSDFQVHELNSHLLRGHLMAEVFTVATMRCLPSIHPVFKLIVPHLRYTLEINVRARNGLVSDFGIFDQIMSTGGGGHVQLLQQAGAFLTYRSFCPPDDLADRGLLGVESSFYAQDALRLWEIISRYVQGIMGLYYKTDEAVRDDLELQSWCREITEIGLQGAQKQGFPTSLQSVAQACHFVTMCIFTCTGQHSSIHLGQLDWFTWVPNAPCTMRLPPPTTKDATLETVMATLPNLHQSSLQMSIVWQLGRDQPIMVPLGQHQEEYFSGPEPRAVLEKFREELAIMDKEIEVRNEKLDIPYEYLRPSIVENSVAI
The data set can be described thus: biochemical. It counts as tissue-based, Reticulocytes. The note with it: reticulocytes.

Data set [2] concerns the target Cytochrome P450 2D6 (Homo sapiens, UniProt P10635). The settings on record: bti-tn-5b1-4. Also: in other assays of this panel Not Active means under 50% inhibition at 10 µM.
The target in data set [3] is Tyrosine-protein kinase Lck (Homo sapiens, UniProt P06239). Nature of the data set: DRUGMATRIX: Protein Tyrosine Kinase, LCK enzyme inhibition (substrate: Poly(Glu:Tyr)). The format is cell-based, Insect cells. The settings on record: Not Active = under 50% inhibition at 10 µM.
Sequence of Tyrosine-protein kinase Lck (P06239 whole entry): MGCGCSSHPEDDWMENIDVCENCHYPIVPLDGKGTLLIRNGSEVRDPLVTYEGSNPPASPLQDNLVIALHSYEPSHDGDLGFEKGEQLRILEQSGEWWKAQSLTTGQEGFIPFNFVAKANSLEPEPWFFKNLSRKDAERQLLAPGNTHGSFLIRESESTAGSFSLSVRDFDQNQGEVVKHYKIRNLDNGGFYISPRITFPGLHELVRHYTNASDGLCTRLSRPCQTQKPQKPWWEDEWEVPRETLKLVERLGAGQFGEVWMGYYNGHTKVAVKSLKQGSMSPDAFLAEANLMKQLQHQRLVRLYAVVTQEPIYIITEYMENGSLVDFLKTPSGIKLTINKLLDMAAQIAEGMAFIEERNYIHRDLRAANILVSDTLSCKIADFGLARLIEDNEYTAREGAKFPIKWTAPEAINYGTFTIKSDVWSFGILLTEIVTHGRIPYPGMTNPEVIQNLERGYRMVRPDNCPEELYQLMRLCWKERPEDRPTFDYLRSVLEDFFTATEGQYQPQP
Data set [4] concerns the target Histamine H2 receptor (Homo sapiens, UniProt P25021). It counts as cell membranes, CHO-K1, Membrane. Also: in other assays of this panel Not Active means under 50% inhibition at 10 µM.
For data set [5], the target named is T2, Cholecystokinin receptor type A (Homo sapiens, UniProt P32238). Also: in other assays of this panel Not Active means under 50% inhibition at 10 µM.
T2 sequence (P32238 whole entry): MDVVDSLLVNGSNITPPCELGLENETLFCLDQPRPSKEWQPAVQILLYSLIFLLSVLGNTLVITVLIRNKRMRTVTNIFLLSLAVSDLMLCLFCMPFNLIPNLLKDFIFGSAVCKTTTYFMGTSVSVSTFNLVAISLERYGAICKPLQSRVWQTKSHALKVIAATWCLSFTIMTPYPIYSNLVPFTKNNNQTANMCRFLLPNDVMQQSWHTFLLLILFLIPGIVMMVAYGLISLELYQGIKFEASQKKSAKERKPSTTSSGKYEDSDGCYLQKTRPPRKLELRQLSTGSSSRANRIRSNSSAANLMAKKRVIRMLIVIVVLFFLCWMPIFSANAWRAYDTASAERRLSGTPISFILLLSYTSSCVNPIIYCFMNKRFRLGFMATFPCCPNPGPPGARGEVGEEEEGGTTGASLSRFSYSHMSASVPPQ
The format is cell membranes, Membrane. The note with it: 1321-n1.

The target in data set [6] is Sigma non-opioid intracellular receptor 1 (Homo sapiens, UniProt Q99720). The data set can be described thus: DRUGMATRIX: Sigma1 radioligand binding (ligand: [3H] Haloperidol). It counts as cell membranes, Jurkat, Membrane. The settings on record: Not Active = under 50% inhibition at 10 µM.
Sequence of Sigma non-opioid intracellular receptor 1 (Q99720 whole entry): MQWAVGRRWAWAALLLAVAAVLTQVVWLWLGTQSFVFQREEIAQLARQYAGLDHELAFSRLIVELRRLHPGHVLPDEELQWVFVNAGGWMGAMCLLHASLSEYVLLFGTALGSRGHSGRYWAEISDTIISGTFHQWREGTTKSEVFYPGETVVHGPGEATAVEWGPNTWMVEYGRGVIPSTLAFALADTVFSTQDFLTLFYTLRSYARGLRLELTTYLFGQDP

Sequence of Histamine H2 receptor (P25021 whole entry): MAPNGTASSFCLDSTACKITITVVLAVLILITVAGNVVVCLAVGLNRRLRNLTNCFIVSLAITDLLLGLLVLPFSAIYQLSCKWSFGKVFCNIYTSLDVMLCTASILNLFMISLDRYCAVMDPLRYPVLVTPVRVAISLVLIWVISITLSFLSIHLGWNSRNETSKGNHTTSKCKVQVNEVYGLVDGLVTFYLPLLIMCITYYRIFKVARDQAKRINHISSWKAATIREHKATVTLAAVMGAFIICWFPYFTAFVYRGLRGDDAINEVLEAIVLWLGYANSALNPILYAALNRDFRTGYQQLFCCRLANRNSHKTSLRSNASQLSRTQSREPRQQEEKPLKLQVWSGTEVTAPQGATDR
Sequence of Cytochrome P450 2D6 (P10635 whole entry): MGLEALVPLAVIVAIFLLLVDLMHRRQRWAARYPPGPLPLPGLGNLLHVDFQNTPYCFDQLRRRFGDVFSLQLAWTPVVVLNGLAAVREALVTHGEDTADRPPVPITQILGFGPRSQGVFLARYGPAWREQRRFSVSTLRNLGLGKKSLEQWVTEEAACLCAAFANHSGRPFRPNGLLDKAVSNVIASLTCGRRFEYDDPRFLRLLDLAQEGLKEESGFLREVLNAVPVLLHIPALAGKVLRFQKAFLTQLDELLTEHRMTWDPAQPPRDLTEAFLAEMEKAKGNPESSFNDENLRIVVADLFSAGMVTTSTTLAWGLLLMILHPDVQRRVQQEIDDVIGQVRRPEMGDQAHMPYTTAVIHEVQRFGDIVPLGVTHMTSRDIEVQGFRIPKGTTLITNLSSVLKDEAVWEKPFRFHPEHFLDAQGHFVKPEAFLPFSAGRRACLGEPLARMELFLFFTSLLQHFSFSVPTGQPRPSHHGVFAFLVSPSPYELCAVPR

In the case of `Nc1ccc(S(=O)(=O)Nc2ncccn2)cc1` [SULFADIAZINE], the IC50 result in data set [1], in data set [2], in data set [3] (insect cells), in data set [4] (cho-k1), in data set [5] and in data set [6] (jurkat) was “Not Active” each time. Further, the inhibitory constant (Ki) entry in data set [2] is “Not Active”.
Regarding `COc1ncnc(NS(=O)(=O)c2ccc(N)cc2)c1OC` [SULFADOXINE], the IC50 result in data set [1], in data set [2], in data set [3] (insect cells), in data set [4] (cho-k1), in data set [5] and in data set [6] (jurkat) was “Not Active” throughout. Moreover, in data set [2], the inhibition constant Ki entry is given as “Not Active”.
`Nc1ccc(S(=O)(=O)Nc2nccs2)cc1` [SULFATHIAZOLE]: the concentration for half-maximal inhibition (IC50) result in data set [1], in data set [2], in data set [3] (insect cells), in data set [4] (cho-k1), in data set [5] and in data set [6] (jurkat) was “Not Active” each time. Also, the Ki entry in data set [2] was “Not Active”.
In the case of `C[C@]12CC[C@H]3[C@@H](CCC4=CC(=O)CC[C@@]43C)[C@@H]1CC[C@@H]2O` [TESTOSTERONE], the IC50 entry in data set [1], in data set [2], in data set [3] (insect cells), in data set [4] (cho-k1), in data set [5] and in data set [6] (jurkat) was “Not Active” throughout. Further, in data set [2], the inhibitory constant (Ki) entry is “Not Active”.
Turning to `CC(C)(C)NC[C@H](O)COc1nsnc1N1CCOCC1` [TIMOLOL], the IC50 entry in data set [1], in data set [2], in data set [3] (insect cells), in data set [4] (cho-k1), in data set [5] and in data set [6] (jurkat) was “Not Active” each time. The inhibition constant Ki entry in data set [2] is reported as “Not Active”.
As to `C[C@@H]1C[C@H]2[C@@H]3CCC4=CC(=O)C=C[C@]4(C)C3=CC[C@]2(C)[C@H]1C(=O)CN1CCN(c2cc(N3CCCC3)nc(N3CCCC3)n2)CC1` [TIRILAZAD], the IC50 result in data set [1] is “Not Active”; in data set [2], “Not Active”; in data set [3] (read-out: IC50), 15.8 µM; in data set [4] (read-out: IC50) it was 14.1 µM; in data set [5], “Not Active”; in data set [6] (jurkat), “Not Active”. The Ki result in data set [2] is “Not Active”; in data set [4] (read-out: Ki) it was 13.9 µM.
In the case of `NC[C@H]1O[C@H](O[C@H]2[C@H](O)[C@@H](O[C@H]3O[C@H](CO)[C@@H](O)[C@H](N)[C@H]3O)[C@H](N)C[C@@H]2N)[C@H](N)C[C@@H]1O` [TOBRAMYCIN], the IC50 result in data set [1], in data set [2], in data set [3] (insect cells), in data set [4] (cho-k1), in data set [5] and in data set [6] (jurkat) was “Not Active” each time. Moreover, in data set [2], the inhibition constant (Ki) entry was “Not Active”.
As for `O=c1n(CCCN2CCN(c3cccc(Cl)c3)CC2)nc2ccccn12` [TRAZODONE], the half-inhibitory concentration (IC50) result in data set [1] is “Not Active”; in data set [2], “Not Active”; in data set [3] (insect cells), “Not Active”; in data set [4] (cho-k1) it was “Not Active”; in data set [5] it was “Not Active”; in data set [6] (read-out: IC50), 2.2 µM. The Ki entry in data set [2] is “Not Active”; in data set [6] (read-out: Ki), 0.926 µM.
Take `O=C(O)C(Cl)(Cl)Cl` [TRICHLOROACETIC ACID]: the IC50 result in data set [1], in data set [2], in data set [3] (insect cells), in data set [4] (cho-k1), in data set [5] and in data set [6] (jurkat) was “Not Active” each time. For the same compound, the Ki entry in data set [2] is reported as “Not Active”.
On to `CC(=O)O[C@H]1C[C@@H]2CC[C@@H]3[C@H](CC[C@@]4(C)[C@H]3C[C@H]([N+]3(C)CCCCC3)[C@@H]4OC(C)=O)[C@@]2(C)C[C@@H]1N1CCCCC1.[Br-]` [VECURONIUM BROMIDE], for which the IC50 entry in data set [1], in data set [2], in data set [3] (insect cells), in data set [4] (cho-k1), in data set [5] and in data set [6] (jurkat) was “Not Active” each time. Also, the Ki entry in data set [2] was “Not Active”.
Consider `COc1cc(C(=O)NS(=O)(=O)c2ccccc2C)ccc1Cc1cn(C)c2ccc(NC(=O)OC3CCCC3)cc12` [ZAFIRLUKAST], for which the half-inhibitory concentration (IC50) result in data set [1], in data set [2], in data set [3] (insect cells), in data set [4] (cho-k1), in data set [5] and in data set [6] (jurkat) was “Not Active” throughout. In addition, the inhibition constant Ki entry in data set [2] is recorded as “Not Active”.
`Cc1cn([C@H]2C[C@H](N=[N+]=[N-])[C@@H](CO)O2)c(=O)[nH]c1=O` [ZIDOVUDINE]: the half-inhibitory concentration (IC50) entry in data set [1], in data set [2], in data set [3] (insect cells), in data set [4] (cho-k1), in data set [5] and in data set [6] (jurkat) was “Not Active” throughout. Further, the Ki result in data set [2] is reported as “Not Active”.
As to STANNOUS FLUORIDE, the IC50 entry in data set [1], in data set [2], in data set [3] (insect cells), in data set [4] (cho-k1), in data set [5] and in data set [6] (jurkat) was “Not Active” throughout. Further, the Ki entry in data set [1], in data set [2], in data set [3] (insect cells), in data set [4] (cho-k1), in data set [5] and in data set [6] (jurkat) was “Not Active” throughout.
With THIMEROSAL, the IC50 result in data set [1] is “Not Active”; in data set [2], 3 µM; in data set [3] (insect cells) it was “Not Active”; in data set [4] (cho-k1) it was “Not Active”; in data set [5], “Not Active”; in data set [6] (jurkat), “Not Active”. The inhibitory constant (Ki) result in data set [1], in data set [3] (insect cells), in data set [4] (cho-k1), in data set [5] and in data set [6] (jurkat) was “Not Active” throughout.
